system: AML12; assay: Activation of Nrf2 in LPS-stimulated mouse AML12 cells assessed as fold increase in HO-1 gene expression at 10 uM incubated for 16 hrs; format: cell-based; details: filed as activator

Point of comparison: `COc1ccc(-c2cc(=O)c3ccc(NS(=O)(=O)c4ccc(F)cc4Br)cc3o2)cc1`, fold change (FC) 3.2. Against it:
- C[S+]([O-])CCCCN=C=S (configuration not stated) — higher, 5.8
- CCCCOc1ccc(S(=O)(=O)Nc2ccc3c(=O)cc(-c4ccc(OC)cc4)oc3c2)cc1 — lower, 2.3
- COc1ccc(-c2cc(=O)c3ccc(NS(=O)(=O)c4ccc(F)c(Cl)c4)cc3o2)cc1 — higher, 4
- COc1ccc(-c2cc(=O)c3ccc(NS(=O)(=O)c4ccc(C)cc4)cc3o2)cc1 — lower, 3.1
- COc1ccc(-c2cc(=O)c3ccc(NS(=O)(=O)c4ccc(OC)cc4)cc3o2)cc1 — higher, 4.6
- COc1ccc(-c2cc(=O)c3ccc(NS(=O)(=O)c4c(C)c(C)cc(C)c4C)cc3o2)cc1 — lower, 2.8
- COc1ccc(-c2cc(=O)c3ccc(NS(=O)(=O)c4cccc(OC)c4)cc3o2)cc1 — higher, 3.7
- COc1ccc(-c2cc(=O)c3ccc(NS(=O)(=O)c4ccccc4F)cc3o2)cc1 — higher, 3.4
- CCc1ccc(S(=O)(=O)Nc2ccc3c(=O)cc(-c4ccc(OC)cc4)oc3c2)cc1 — higher, 5
- O=c1c(O)c(-c2ccc(O)c(O)c2)oc2cc(O)cc(O)c12 — lower, 1.4
- COc1ccc(-c2cc(=O)c3ccc(NS(=O)(=O)c4ccc(C)cc4C)cc3o2)cc1 — lower, 3
- COc1ccc(-c2cc(=O)c3ccc(NS(=O)(=O)c4ccccc4OC)cc3o2)cc1 — higher, 3.3
- COc1ccc(-c2cc(=O)c3ccc(NS(=O)(=O)c4ccc(C(C)C)cc4)cc3o2)cc1 — higher, 3.4
- COc1ccc(-c2cc(=O)c3ccc(NS(=O)(=O)c4ccc(OC(F)(F)F)cc4)cc3o2)cc1 — higher, 7
- COc1ccc(-c2cc(=O)c3ccc(NS(=O)(=O)c4cccs4)cc3o2)cc1 — higher, 3.4
- COc1ccc(-c2cc(=O)c3ccc(NS(=O)(=O)c4ccccc4OC(F)(F)F)cc3o2)cc1 — higher, 3.9
- COc1ccc(-c2cc(=O)c3ccc(NS(=O)(=O)c4ccc(F)cc4Cl)cc3o2)cc1 — higher, 3.6
- COc1ccc(-c2cc(=O)c3ccc(N(CC(N)=O)S(=O)(=O)c4ccc(OC)cc4)cc3o2)cc1 — lower, 2.3
- COc1ccc(-c2cc(=O)c3ccc(NS(=O)(=O)c4cccc(OC(F)(F)F)c4)cc3o2)cc1 — higher, 4.2
- COc1ccc(-c2cc(=O)c3ccc(NS(=O)(=O)c4ccc(OC)cc4OC)cc3o2)cc1 — higher, 4
- COC(=O)CN(c1ccc2c(=O)cc(-c3ccc(OC)cc3)oc2c1)S(=O)(=O)c1ccc(F)cc1 — higher, 4.8
- O=C1c2c(O)cc(O)cc2O[C@H](c2cc(O)c(O)c(O)c2)[C@H]1O — lower, 1.4
- COc1ccc(-c2cc(=O)c3ccc(NS(=O)(=O)c4cccc(F)c4)cc3o2)cc1 — higher, 4.5
- O=C1C[C@@H](c2ccc(O)cc2)Oc2cc(O)ccc21 — lower, 2
- COc1ccc(-c2cc(=O)c3ccc(NS(=O)(=O)c4ccc(C(F)(F)F)cc4)cc3o2)cc1 — higher, 4.8
- COc1ccc(-c2cc(=O)c3ccc(NS(=O)(=O)c4ccc([N+](=O)[O-])cc4)cc3o2)cc1 — higher, 3.3
- O=c1cc(-c2ccc(O)cc2)oc2cc(O)cc(O)c12 — lower, 1.8
- COc1ccc(-c2cc(=O)c3ccc(NS(=O)(=O)c4cccnc4)cc3o2)cc1 — higher, 5.3
- COc1ccc(-c2cc(=O)c3ccc(NS(=O)(=O)c4ccc(F)c(Br)c4)cc3o2)cc1 — higher, 4.2
- COC(=O)CN(c1ccc2c(=O)cc(-c3ccc(OC)cc3)oc2c1)S(=O)(=O)c1ccc(C(F)(F)F)cc1 — lower, 2.6
- COC(=O)CN(c1ccc2c(=O)cc(-c3ccc(OC)cc3)oc2c1)S(=O)(=O)c1ccc(OC)cc1 — higher, 3.5
